Experiments:
[1] = Organic-solvent extraction of microbial inhibitors from an agro-waste hydrolysate mimic; assay type: physicochemical; conditions: for Inhibitor extraction, phase separation by centrifugal force / Inhibitor extraction, phase separation by separating funnel: solvent bis-(2-ethylhexyl) sebacate; for Ferulic acid removal / Furfural removal / HMF removal / Syringaldehyde removal / TRS removal / Vanillic acid removal / Vanillin removal / TRS (total reducing sugar) after extraction: Vaqueous:Vorganic = 2:1; for TRS (total reducing sugar) after extraction: standard 52.00 g/L
Source text: Media composition was designed according to the inhibitory compound limit concentration reported in the literature for bio-butanol producing solventogenic Clostridia (Baral et al. Microbial inhibitors: formation and effects on acetone-butanol-ethanol fermentation of lignocellulosic biomass. Applied microbiology and biotechnology, Vol. 98(22), 2014: 9151-9172; Qureshi et al. Production of butanol (a biofuel) from agricultural residues: Part I—Use of barley straw hydrolysate. Biomass and bioenergy, Vol. 34(4), 2010: 559-565). Different volume ratio of the hydrolysate mimic and organic solvents, such as (5:1), (3:1), (2:1), (1:1) and (1:2) (vaqueous:vorganic) were tried in order to minimize extractant expenditure. Organic and aqueous phase mixing was carried out by a propeller impeller. Rotation rate (100, 200, 250, 300 and 400 rpm) and operation-time (15, 30, 45, 60 and 90 min) were tested at room temperature (25° C.). A comparative study between settling through separating funnel vs. centrifugal force assisted separation was also made to guarantee an optimal recovery of the broth phase.
A complex mixture of several reduced sugar compounds (e.g. as glucose, fructose, and xylose) and microbial inhibitors (furfural, HMF, acetic acid, levulinic acid, vanillin, vanillic acid, feluric acid and syringaldehyde) were produced during the pretreatment step (hydrolysis). In order to analyse these compounds, liquid samples were collected and analyzed using liquid chromatography-mass spectrometry (LC-MS) and liquid chromatography-tandem mass spectrometry (LC/MS-MS) equipped with a ZORBAX Carbohydrate column (5 μm, 150×4.6 mm ID column) (Agilent Technologies, USA) with D6 glucose as the internal standard and a Biobasic-18 column (5 μm, 250×4.6 mm ID) (Agilent Technologies, USA) with phenylethanol-D5 as the internal standard. […] Methanol water (8:2) and acetonitrile water (8.5:1.5) were used to dilute the sample before inhibitor and carbohydrate analysis. […]

[2] = system: solventogenic Clostridia (ABE fermentation); conditions: cited from earlier work; for Inhibitory concentration: ABE fermentation
cellulase enzyme = conditions: cited from earlier work
[3] = system: Clostridium acetobutylicum NRRL B-582 (ATCC-824) (CA); assay: Bio-compatibility (solvent toxicity) batch ABE fermentation, CA; conditions: for ABE / Butanol: CA
Procedure: (§1) Clostridium acetobutylicum NRRL B-582 (ATCC-824) (CA) and Clostridium beijerinckii NRRL B-466(CB) were considered for current investigation to produce bio-butanol from different brewery industry wastes. They were kindly provided by Agricultural Research Station, USDA (USA). The microorganisms were grown and maintained in peptone-yeast extract-glucose (PYG) media under anaerobic condition (vegetative growth) at 37±1° C. and 150 rpm for 24 h and 17 h, respectively, before being transferred into the fermentation medium. The medium (g L^−1) comprised: glucose (10); yeast extract (10); peptone (5); tryptone (5); cysteine-HCl (0.5); K2HPO4 (2.04); KH2PO4 (0.04); FeSO4*7H2O (1.1×10^−3); CaCl2 (8×10^−3); MgSO4*7H2O (0.0192); NaCl (0.08); and NaHCO3 (0.4). 125 mL serum bottles (working volume 50 mL) were used for both butanol production and inoculum development (Maiti et al., January 2016, Maiti et al., August 2015). Anaerobic conditions were maintained within the bottle by sparging N2 for 10 minutes and immediately sealed by an aluminum crimp seal containing silicone septum (Fisher scientific, Canada) by means of a hand operated crimper (E-Z Crimper™, VWR, Ontario, Canada). Prior to culture development, the medium was sterilized for 20 min at 121±1° C. About 10% (v/v) (dry cell weight […]) of microbial culture in its exponential phase of growth (OD600nm=1.3-1.5) was used as inoculum for all the experiments conducted in this investigation.
(§2) Set-1, set-4 and set-5 were included as control-1, control-2 and control-3 respectively. All the experiments were carried out in P2 nutrient media as described later in batch fermentation section.
(§3) Batch fermentation was performed in 125 mL serum vials (working volume of 50 mL) at pH 6.7±0.1. The P2 medium was sterilized at 121±1° C. for 20 min. Prior to fermentation, anaerobic conditions for each bottle were maintained by sparging the medium with N2 for 10 minutes and immediately closing with an aluminum crimp seal containing silicon septum (Fisher scientific, Canada) by means of a hand-operated crimper (E-Z Crimper™, VWR, Ontario, Canada). A modified P2 medium, with the following composition, was used for fermentation experiments: Buffer→KH2PO450 g/L, K2HPO450 g/L, ammonium acetate 220 g/L; Minerals→MgSO4*7H2O 20 g/L, MnSO4*H2O 1 g/L, FeSO4*7H2O 1 g/L, NaCl 1 g/L; Vitamins→thiamin 0.1 g/L, biotin 0.001 g/L). Since brewery industry wastes were already enriched with yeast protein, no additional yeast protein nor peptone were supplemented.
(§4) The fermentation was initiated by inoculating the P2 medium with the seed cultures at a ratio of 10% (v:v). […] Fermentation experiments were performed at 37±1° C. with shaking at 150 rpm for 72 h in duplicates. 1 mL of culture broth from each batch assay was used for metabolite analysis. Data described here present average values from duplicate runs for duplicate samples.
(§5) To determine the different metabolites produced during ABE fermentation (i.e. butanol, ethanol, acetone, butyric acid, and acetic acid) liquid samples from each fermentation broth were collected and analyzed using gas chromatography (GC) (GC7890B, Agilent Technologies, USA) equipped with a FID detector and a HP-INNOWax™ column (30 m, 0.25 mm ID, 0.25 μm df). Isobutanol was used as the internal standard. Before injecting the sample (1 mL) in the GC for products analysis, the sample was centrifuged for 5 minutes at 7650×g and the supernatant was filtered by 0.45 μm syringe filter. The GC conditions comprised: helium carrier gas at a flow rate of 1 mL/min with a temperature ramp from the initial temperature of 50° C. to 150° C.

[4] = system: Clostridium beijerinckii NRRL B-466 (CB); assay: Bio-compatibility (solvent toxicity) batch ABE fermentation, CB
Procedure: as §1, §2, §3, §4, §5

[5] = homogenizer rotational speed 100 rpm
[6] = homogenizer rotational speed 200 rpm
[7] = homogenizer rotational speed 250 rpm
[8] = homogenizer rotational speed 300 rpm
[9] = homogenizer rotational speed 400 rpm
[10] = Control-2 (glucose + BIS) + extraction (2:1 mimic:organic solvent) before fermentation
[11] = Set-7 (10 times diluted BIS) + extraction (2:1)
[12] = Set-8 (50 times diluted BIS) + extraction (2:1)
[13] = Extraction 1, hydrolysate mimic
[14] = Extraction 2, hydrolysate mimic
[15] = Extraction 3, hydrolysate mimic
[16] = Extraction 4, hydrolysate mimic
[17] = first stage, ratio 2:1, hydrolysate mimic
[18] = simulated synthetic media as well as waste hydrolysate, ex-situ detoxification

## COc1cc(/C=C/C(=O)O)ccc1O [Ferulic acid, ferulic acid]
[1]; [5]
  Inhibitor extraction, phase separation by centrifugal force: 97%
  Inhibitor extraction, phase separation by separating funnel: 94%
[1]; [6]
  Inhibitor extraction, phase separation by centrifugal force: 96%
  Inhibitor extraction, phase separation by separating funnel: 94%
[1]; [7]
  Inhibitor extraction, phase separation by centrifugal force: 97%
  Inhibitor extraction, phase separation by separating funnel: 93%
[1]; [8]
  Inhibitor extraction, phase separation by centrifugal force: 95%
  Inhibitor extraction, phase separation by separating funnel: 94%
[1]; [9]
  Inhibitor extraction, phase separation by centrifugal force: 97%
  Inhibitor extraction, phase separation by separating funnel: 96%
[2]
  Inhibitory concentration: > 0.3 g/L
  Concentration that inhibited butanol production: 1. (>0.3 g/L) inhibited butanol production

## COc1cc(C=O)cc(OC)c1O [Syringaldehyde, syringaldehyde]
Cellulase enzyme
  Concentration showing strong inhibition on cellulase enzyme activity: 1. (0.05 g/L) showed strong inhibition
[1]; [5]
  Inhibitor extraction, phase separation by centrifugal force: 100%
  Inhibitor extraction, phase separation by separating funnel: 100%
[1]; [6]
  Inhibitor extraction, phase separation by centrifugal force: 100%
  Inhibitor extraction, phase separation by separating funnel: 100%
[1]; [7]
  Inhibitor extraction, phase separation by centrifugal force: 100%
  Inhibitor extraction, phase separation by separating funnel: 100%
[1]; [8]
  Inhibitor extraction, phase separation by centrifugal force: 100%
  Inhibitor extraction, phase separation by separating funnel: 100%
[1]; [9]
  Inhibitor extraction, phase separation by centrifugal force: 100%
  Inhibitor extraction, phase separation by separating funnel: 100%
[2]
  Inhibitory concentration: >0.05 g/L
  Concentration that stopped ABE production: 2. (0.3-1.0 g/L) stopped ABE production

## COc1cc(C(=O)O)ccc1O [Vanillic acid, vanillic acid]
[1]; [5]
  Inhibitor extraction, phase separation by centrifugal force: 92%
  Inhibitor extraction, phase separation by separating funnel: 90%
[1]; [6]
  Inhibitor extraction, phase separation by centrifugal force: 93%
  Inhibitor extraction, phase separation by separating funnel: 91%
[1]; [7]
  Inhibitor extraction, phase separation by centrifugal force: 94%
  Inhibitor extraction, phase separation by separating funnel: 93%
[1]; [8]
  Inhibitor extraction, phase separation by centrifugal force: 94%
  Inhibitor extraction, phase separation by separating funnel: 93%
[1]; [9]
  Inhibitor extraction, phase separation by centrifugal force: 96%
  Inhibitor extraction, phase separation by separating funnel: 93%
[2]
  Inhibitory concentration: >1 g/L
  Concentration that stopped bio-butanol production: 1. (>1 g/L) stopped bio-butanol

## CCCCC(CC)COC(=O)CCCCCCCCC(=O)OCC(CC)CCCC (stereo not shown) [bis-(2-ethylhexyl) sebacate]
[3]; [10]
  ABE: 13.96 ± 0.3 g/L
  Butanol: 10.25 ± 0.5 g/L
[3]; [11]
  ABE: 12.5 ± 0.2 g/L
  Butanol: 9.13 ± 0.2 g/L
[3]; [12]
  ABE: 12.2 ± 0.3 g/L
  Butanol: 9.1 ± 0.3 g/L
[3]; set-9: control 2 after extraction, both bacterial strains
  Average increase in bio-butanol production in comparison with control 1/set-1: 8-10%
[4]; [10]
  ABE: 13.15 ± 0.3 g/L
  Butanol: 9.58 ± 0.2 g/L
[4]; [11]
  ABE: 11.48 ± 0.4 g/L
  Butanol: 8.62 ± 0.3 g/L
[4]; [12]
  ABE: 11.0 ± 0.3 g/L
  Butanol: 8.4 ± 0.2 g/L
[1]; [13]
  Ferulic acid removal: 97%
  Furfural removal: 79%
  HMF removal: 78%
  Syringaldehyde removal: 93%
  TRS removal: 0%
  Vanillic acid removal: 93%
  Vanillin removal: 95%
  TRS (total reducing sugar) after extraction: 52.00 g/L
[1]; [14]
  Ferulic acid removal: 99%
  Furfural removal: 97%
  HMF removal: 96%
  Syringaldehyde removal: 99%
  TRS removal: 0%
  Vanillic acid removal: 97%
  Vanillin removal: 97%
  TRS (total reducing sugar) after extraction: 52.00 g/L
[1]; [15]
  Ferulic acid removal: 100%
  Furfural removal: 100%
  HMF removal: 100%
  Syringaldehyde removal: 100%
  TRS removal: 0%
  Vanillic acid removal: 100%
  Vanillin removal: 100%
  TRS (total reducing sugar) after extraction: 52.00 g/L
[1]; [16]
  Ferulic acid removal: 100%
  Furfural removal: 100%
  HMF removal: 100%
  Syringaldehyde removal: 100%
  TRS removal: 0%
  Vanillic acid removal: 100%
  Vanillin removal: 100%
  TRS (total reducing sugar) after extraction: 52.00 g/L
[1]; [17]
  Extraction efficiency for phenolic compounds: > 93%
  Extraction efficiency towards furan derivatives: 78-79%
[1]; set-10 and set-11 (10 and 50 times diluted BIS), extraction 2:1
  Removal of the inhibitors from the mimic synthetic media: > 99%
[1]; [18]
  Extraction of furan derivatives: More than 80%
  Extraction of phenolic compounds: more than 95%
  Extraction of reducing sugar: almost no extraction

— patent US10662445B2, “Process for the production of bio-butanol by fermentation of glycosidic waste matter” (priority 2018, dated 2020)
